Legend:
in vivo = assay: in vivo
Experimental: The quality control (QC) and plasma samples were analyzed by an Agilent 6470 triple quadrupole LC–MS system (Agilent Technologies, Inc., Santa Clara, CA, USA), which consists of an Agilent 1290 Infinity II system connected to a triple quadrupole MS analyzer with an Agilent Jet Stream technologies electrospray ionization (ESI) interface. The Agilent 1290 LC system is equipped with degasser (G7116B), high speed pump (G7120A) and multisampler (G7167B). The samples (2 μL) were injected into the LC system. A MassHunter workstation was applied for LC–MS control and data acquisition.
Chromatographic separation was conducted with a CAPCELL PAK ADME (2.1 mm × 100 mm, 3 μm; Shiseido Co., Ltd., Tokyo, Japan). The mobile phase included 0.1% formic acid (A) and methanol (B), and the flow rate was 0.3 mL/min. Iridoid glycosides and anthraquinones were detected in the isocratic elution, which was kept 80% B for 5.5 min in the negative mode. The others were separated in the positive mode with another gradient program, which was maintained at 45% B for 0.5 min, then increased to 95% B in 2 min, and maintained at 95% B until 4.5 min, and the post time is 2 min.
The optimal parameters for the ESI interface were as follows: nebulizer, 45 psi; dry gas, 10 L/min; dry temp, 350°C; sheath gas, 11 L/min; sheath gas temp, 350°C; capillary voltage, 4000 V (in the positive mode) and 3500 V (in the negative mode); and delta EMV, 200 V. The MS parameters for iridoid glycosides and anthraquinones were improved in the negative mode, and the MS parameters for the other analytes were improved in positive mode.
The animals were randomly divided into the control group (n = 6) and the model group (n = 6): the model rats, i.e., acute liver injury rats, were induced by intraperitoneal injections of CCl4 diluted with olive oil (1:1, v/v) at a dose of 1.5 mL/kg.bw every day for three days, and the rats in the control group were administered with olive oil.
After being thawed at room temperature, 100 μL plasma was put in a 1.5 mL centrifuge tube, and then 100 μL IS solution and 300 μL acetonitrile was added. After the mixture was vortexed for 1 min, it was centrifuged at 12000 rpm for 10 min at 4°C to precipitate the protein. Then the supernatant was transferred to another clean centrifuge tube, and evaporated to dryness under nitrogen stream, the residue was reconstituted in 50 μL methanol-water (1:1, v/v). After centrifuging at 12000 rpm for 10 min at 4°C again, a 2 μL aliquot of supernatant was injected for LC–MS/MS analysis.
The validated method was used for the pharmacokinetic study. Standard diet was withheld over night before oral administration of YCHT, but with free access to water. And YCHT (60 g/kg) was administered to the rats by gastric perfusion, equivalent to 10.09 mg/kg of scoparone, 0.49 mg/kg scopoletin, 17.16 mg/kg of geniposide, 9.86 mg/kg of rhein, 2.66 mg/kg of aloe-emodin, 2.24 mg/kg of chrysophanol, 0.83 mg/kg of emodin, and 0.58 mg/kg of physcion.
A series of blood samples (0.3 mL) were collected from the rats' postorbital venous plexuses at 0 (pre-dose), 5, 10, 15, 30, 45, 60, 90, 120, 240, 480, 600, 720 and 1440 min, and put into heparinized tubes. The heparinized plasma was immediately centrifuged to separate at 3000 g for 10 min and stored at −80°C before experiments. The analytes' concentrations in plasma were determined by LC–MS/MS methods described above.
The plasma concentrations were expressed as arithmetic mean ± standard deviation (SD). And the mean concentration–time curves were calculated and plotted by DAS (version 3.0, Bio Guider Co., Shanghai, China), and the PK parameters consist of elimination half-life (t1/2), area under the plasma concentration-time curve (AUC), and mean residence time (MRT). The maximum plasma concentrations (Cmax) and corresponding peak time (Tmax) were obtained from the observed data directly.

[1] = Plasma pharmacokinetics after oral administration of YCHT in control (normal) rats, UHPLC-MS/MS; type: in vivo, Sprague-Dawley rats; conditions: for CL/F / Cmax / MRT inf / MRT last / Tmax / half-life: Sprague-Dawley
Text: The validated method was used for the pharmacokinetic study.
P<0.05 represented statistical significance.

P-glycoprotein (P-gp) = tested on: P-glycoprotein (P-gp); design: method as in PMID 25776492, PMID 26121397; conditions: cited from earlier work
[2] = Sprague-Dawley, rat, in vivo, po
[3] = Sprague-Dawley, rat, in vivo, po, 60 g/kg
[4] = Fr = (AUCmodel/AUCcontrol)∗100%, oral YCHT 60 g/kg
[5] = Sprague-Dawley, rat, plasma, po, 60 g/kg
[6] = model (CCl4 liver injured) rats, oral YCHT 60 g/kg, plasma, n = 6
[7] = control rats, oral YCHT 60 g/kg, plasma, n = 6

Cc1cc(O)c2c(c1)C(=O)c1cccc(O)c1C2=O [Chrysophanol]
Fr (relative bioavailability) (in vivo; [2]): 142.23%
CL/F (in vivo; [3]): 257 mL/min/kg
Cmax (in vivo; [3]): 37.6 ± 6.51 ng/mL
MRT inf (in vivo; [3]): 4.2 ± 0.77 h
MRT last (in vivo; [3]): 3.43 ± 0.4 h
Tmax (in vivo; [3]): 0.88 ± 0.35 h
half-life (in vivo; [3]): 3.12 ± 1.74 h
AUC0–t (in vivo; rat, in vivo, po, 60 g/kg): 141.29 ± 27.92∗∗ ug/L∗h
AUC0–∞ (in vivo; rat, in vivo, po, 60 g/kg): 148.47 ± 25.04∗∗ ug/L∗h
CL/F ([1]; rat, in vivo, po, 60 g/kg): 363 mL/min/kg
Cmax ([1]; rat, in vivo, po, 60 g/kg): 34.5 ± 4.99 ng/mL
MRT inf ([1]; rat, in vivo, po, 60 g/kg): 3.34 ± 0.21 h
MRT last ([1]; rat, in vivo, po, 60 g/kg): 2.93 ± 0.16 h
Tmax ([1]; rat, in vivo, po, 60 g/kg): 0.63 ± 0.26 h
half-life ([1]; rat, in vivo, po, 60 g/kg): 2 ± 0.23 h
AUC0–t ([1]; rat, in vivo, po, 60 g/kg): 99.34 ± 10.12 ug/L∗h
AUC0–∞ ([1]; rat, in vivo, po, 60 g/kg): 103.57 ± 10.09 ug/L∗h

COc1cc2ccc(=O)oc2cc1OC [Scoparone]
Fr (relative bioavailability) (in vivo; [4]): 227.64%
CL/F (in vivo; [5]): 32.7 mL/min/kg
Cmax (in vivo; [5]): 1770 ± 107 ng/mL
MRT inf (in vivo; [5]): 3.95 ± 0.26 h
MRT last (in vivo; [5]): 3.94 ± 0.26 h
Tmax (in vivo; [5]): 0.33 ± 0.13 h
half-life (in vivo; [5]): 1.58 ± 0.13 h
AUC0–t (in vivo; [6]): 5196.54 ± 513.37∗∗ ug/L∗h
AUC0–∞ (in vivo; [6]): 5197.06 ± 513.33∗∗ ug/L∗h
AUC in model rats higher than in normal rats (in vivo; model vs normal rats, oral YCHT): approximately 2 fold
CL/F ([1]; rat, control rats, oral YCHT 60 g/kg, plasma, n = 6, read-out: CLz/F (converted)): 73.7 mL/min/kg
Cmax ([1]; rat, control rats, oral YCHT 60 g/kg, plasma, n = 6, read-out: Cmax): 939 ± 112 ng/mL
MRT last ([1]; rat, control rats, oral YCHT 60 g/kg, plasma, n = 6, read-out: MRT0–t): 3.19 ± 0.16 h
MRT inf ([1]; rat, control rats, oral YCHT 60 g/kg, plasma, n = 6, read-out: MRT0–∞): 3.51 ± 0.14 h
Tmax ([1]; rat, control rats, oral YCHT 60 g/kg, plasma, n = 6, read-out: Tmax): 0.54 ± 0.1 h
half-life ([1]; rat, control rats, oral YCHT 60 g/kg, plasma, n = 6, read-out: t 1/2 (converted)): 2.14 ± 0.71 h
AUC0–t [1, 7]: 2282.77 ± 390.03 ug/L∗h
AUC0–∞ [1, 7]: 2347.92 ± 428.69 ug/L∗h

COc1cc2ccc(=O)oc2cc1O [Scopoletin]
Fr (relative bioavailability) (in vivo; [4]): 123.38%
CL/F (in vivo; [3]): 1100 mL/min/kg
Cmax (in vivo; [3]): 3.34 ± 1.19 ng/mL
MRT inf (in vivo; [3]): 5.56 ± 0.63 h
MRT last (in vivo; [3]): 4.81 ± 0.43 h
Tmax (in vivo; [3]): 0.13 ± 0.05 h
half-life (in vivo; [3]): 2.2 ± 0.82 h
AUC0–t (in vivo; [6]): 7.23 ± 1.84 ug/L∗h
AUC0–∞ (in vivo; [6]): 7.83 ± 2.00 ug/L∗h
P-gp substrate (P-glycoprotein (P-gp)): not P-gp substrates
CL/F ([1]; rat, in vivo, po, 60 g/kg): 1180 mL/min/kg
Cmax ([1]; rat, in vivo, po, 60 g/kg): 3.53 ± 0.67 ng/mL
MRT inf ([1]; rat, in vivo, po, 60 g/kg): 6.9 ± 4.2 h
MRT last ([1]; rat, in vivo, po, 60 g/kg): 4.4 ± 0.44 h
Tmax ([1]; rat, in vivo, po, 60 g/kg): 0.19 ± 0.04 h
half-life ([1]; rat, in vivo, po, 60 g/kg): 3.62 ± 3.85 h
AUC0–t [1, 7]: 5.86 ± 0.50 ug/L∗h
AUC0–∞ [1, 7]: 7.41 ± 2.53 ug/L∗h

Cc1cc(O)c2c(c1)C(=O)c1cc(O)cc(O)c1C2=O [Emodin]
Fr (relative bioavailability) (in vivo; [2]): 112.01%
CL/F (in vivo; [3]): 1050 mL/min/kg
Cmax (in vivo; [3]): 3.89 ± 0.89 ng/mL
MRT inf (in vivo; [3]): 6.64 ± 0.78 h
MRT last (in vivo; [3]): 4.83 ± 0.25 h
Tmax (in vivo; [3]): 0.17 ± 0.05 h
half-life (in vivo; [3]): 3.64 ± 0.79 h
AUC0–t (in vivo; [6]): 11.66 ± 2.70 ug/L∗h
AUC0–∞ (in vivo; [6]): 13.49 ± 2.43 ug/L∗h
P-gp substrate (P-glycoprotein (P-gp)): not P-gp substrates
CL/F ([1]; rat, in vivo, control rats, oral YCHT 60 g/kg, plasma, n = 6, read-out: CLz/F (converted)): 1160 mL/min/kg
Cmax ([1]; rat, in vivo, control rats, oral YCHT 60 g/kg, plasma, n = 6, read-out: Cmax): 3.51 ± 0.59 ng/mL
MRT last ([1]; rat, in vivo, control rats, oral YCHT 60 g/kg, plasma, n = 6, read-out: MRT0–t): 4.94 ± 0.26 h
MRT inf ([1]; rat, in vivo, control rats, oral YCHT 60 g/kg, plasma, n = 6, read-out: MRT0–∞): 6.65 ± 1.99 h
Tmax ([1]; rat, in vivo, control rats, oral YCHT 60 g/kg, plasma, n = 6, read-out: Tmax): 0.2 ± 0.17 h
half-life ([1]; rat, in vivo, control rats, oral YCHT 60 g/kg, plasma, n = 6, read-out: t 1/2 (converted)): 3.33 ± 1.67 h
AUC0–t [1, 7]: 10.41 ± 0.83 ug/L∗h
AUC0–∞ [1, 7]: 12.06 ± 1.53 ug/L∗h
